Measurements from ChEMBL document CHEMBL3507680, “University of Dundee, Gates Library screen for HepG2 cell viability”.

Assay: Human HepG2 cell viability assay in 384 well format
Type: toxicity, cell-based
Set-up: dose 125 nL, time 70.5 hour; concentration not given beside the values
Conditions: HepG2 cells, read-out: Inhibition

CC(C)(C)OC(=O)N1CCC[C@H](NCC2=CCCOC2)C1
cytotoxicity at 70.5 h: -9.87%

CCc1nnc2n1CC(CNCc1nc(C)c(C)o1)CC2 (configuration not stated)
cytotoxicity at 70.5 h: -2.88%

Cc1ccc(O)c(CNCC(C)c2nc3ccccc3o2)n1 (configuration not stated)
cytotoxicity at 70.5 h: -4.08%

Cc1ccc(S(=O)(=O)N(CC(N)=O)CC(C)C)cc1C
cytotoxicity at 70.5 h: -5.56%

Brc1ccc(-c2nnc(CN(Cc3cccs3)CC3CCCO3)o2)s1 (configuration not stated)
cytotoxicity at 70.5 h: -14.5%

CN(Cc1ccc(N(C)C)cc1)C(=O)CSc1ccc(Br)cc1
cytotoxicity at 70.5 h: -9.49%

Cc1nnc(NCCC(=O)NCc2ccccc2)c(C#N)c1C
cytotoxicity at 70.5 h: -9.42%

Cc1nnc(NCCC(=O)N(C)Cc2ccccc2)c(C#N)c1C
cytotoxicity at 70.5 h: 3.39%

CCOc1ncccc1NC(=O)Nc1c(C)nn(C(C)C)c1C
cytotoxicity at 70.5 h: -4.11%

Cc1cc(C)c(CNC(=O)NCC2Cc3ccccc3O2)c(=O)[nH]1 (configuration not stated)
cytotoxicity at 70.5 h: -6.51%

O=C(c1cc(F)cc2[nH]cnc12)N1CCCC1Cn1cccn1 (configuration not stated)
cytotoxicity at 70.5 h: -8.91%

Cc1nnc(C(NS(=O)(=O)c2cc(C#N)ccc2C)C(C)C)[nH]1 (configuration not stated)
cytotoxicity at 70.5 h: -5.93%

CCn1nc2c(cc1=O)CN(c1ncnc3ccsc13)CC2
cytotoxicity at 70.5 h: -7.93%

CC(C)n1nc2c(cc1=O)CN(c1ncnc3ccsc13)CC2
cytotoxicity at 70.5 h: 13.9%

CC(C)n1nc2c(cc1=O)CN(c1ncnc3ccccc13)CC2
cytotoxicity at 70.5 h: -1.82%

Cc1nnc(C(NS(=O)(=O)c2cc(F)c(C)cc2F)C(C)C)[nH]1 (configuration not stated)
cytotoxicity at 70.5 h: -5.12%

Cn1cnnc1-c1ccnc(NCc2ccc3c(c2)OCCO3)c1
cytotoxicity at 70.5 h: -3.05%

OC1CCN(c2ccnc3c(F)cc(Br)cc23)CC1
cytotoxicity at 70.5 h: 16.9%

Cc1cc(S(=O)(=O)NC(=O)CCc2cncc(F)c2)c(C)s1
cytotoxicity at 70.5 h: -1.54%

Cc1cn2c(n1)C(CNCC1=Cc3ccccc3OC1)CCC2 (configuration not stated)
cytotoxicity at 70.5 h: 10.6%

CN(Cc1ccccc1)C(=O)CCNc1ncccc1C#N
cytotoxicity at 70.5 h: -4.83%

FC(F)COc1ccccc1NCc1nnsc1Cl
cytotoxicity at 70.5 h: -10.5%

O=C(c1c[nH]c2ncccc12)N1CCC(COc2ccccc2)CC1
cytotoxicity at 70.5 h: 10.4%

CN(C)C(CNC(=O)c1nc(N2CCCC2)ncc1Cl)c1ccco1 (configuration not stated)
cytotoxicity at 70.5 h: -17.5%

COc1cc2c(cc1OC)S(=O)(=O)N(Cc1ccc(C)cc1)C2=O
cytotoxicity at 70.5 h: -14.5%

Cc1ccc(C(=O)O)cc1S(=O)(=O)N(CC(C)O)c1ccccc1 (configuration not stated)
cytotoxicity at 70.5 h: -16.2%

CCN(c1ccccc1)S(=O)(=O)c1cc(C(=O)O)cc2c1CCC2
cytotoxicity at 70.5 h: 21.2%

CC1CCN(CC2CCN(C(=O)c3c[nH]c4ncccc34)CC2)CC1
cytotoxicity at 70.5 h: -19.4%

CCN(c1cccc(F)c1)S(=O)(=O)c1cc(C(=O)O)cc2c1CCC2
cytotoxicity at 70.5 h: -9.22%

COc1cc(C(C)=O)ccc1SCC(=O)Nc1cccc(C)n1
cytotoxicity at 70.5 h: -19.2%

CCN(C)c1ccc(CNC(=O)c2ccc(NC(N)=O)cc2)cc1F
cytotoxicity at 70.5 h: -17.6%

CCc1nc(CNC2CCCCNC2=O)cs1 (configuration not stated)
cytotoxicity at 70.5 h: -6.64%

CCN(C(=O)NCCc1ccc(C)cc1C)C(C)CS(C)(=O)=O (configuration not stated)
cytotoxicity at 70.5 h: -12.9%

CCN(C(=O)NCCc1cccc(F)c1F)C(C)CS(C)(=O)=O (configuration not stated)
cytotoxicity at 70.5 h: -5.85%

CCN(C(=O)NCCc1ccccc1Cl)C(C)CS(C)(=O)=O (configuration not stated)
cytotoxicity at 70.5 h: 20.5%

NC(=O)c1ccc(OCC(=O)NC2CCc3c(F)cccc32)cc1 (configuration not stated)
cytotoxicity at 70.5 h: -5.14%

O=C(O)c1cc2c(c(S(=O)(=O)N(CCCO)c3ccccc3)c1)CCC2
cytotoxicity at 70.5 h: -10.1%

COC(C)(C)CNC(=O)N(C)Cc1nc(-c2ccccc2)c[nH]1
cytotoxicity at 70.5 h: 24.9%

CN(Cc1nc(-c2ccccc2)c[nH]1)C(=O)NCC(=O)NC(C)(C)C
cytotoxicity at 70.5 h: -5.84%

O=C(NCCCc1cccs1)N1CCCCC1CCO (configuration not stated)
cytotoxicity at 70.5 h: -1.44%

CCOCC1CCN(C(=O)Nc2ccc3c(c2)CCCN3C)C1 (configuration not stated)
cytotoxicity at 70.5 h: -10.4%

OCC(O)CSCc1nnc(-c2ccc(Cl)cc2)o1 (configuration not stated)
cytotoxicity at 70.5 h: -13.7%

COc1cc(F)ccc1N1CCN(Cc2nnc(C3CC3)o2)CC1
cytotoxicity at 70.5 h: -14.9%

CC(C)CNC(=O)Cn1cc(C(N)=O)c(-c2ccccc2)n1
cytotoxicity at 70.5 h: -8.01%

CCC(CC)NC(=O)Cn1cc(C(N)=O)c(-c2ccccc2)n1
cytotoxicity at 70.5 h: 17.3%

CC(Cc1ccco1)NC(=O)CCn1cccn1 (configuration not stated)
cytotoxicity at 70.5 h: -14.7%

CCCN(C(=O)c1csnn1)C1CCCN(Cc2ccccc2)C1 (configuration not stated)
cytotoxicity at 70.5 h: -5.57%

CC(C(=O)Nc1cccc(Cl)c1)N1CCN(Cc2ncc[nH]2)CC1 (configuration not stated)
cytotoxicity at 70.5 h: -10.6%

O=C(CCc1nc(C2CC2)no1)c1ccccc1
cytotoxicity at 70.5 h: -16%

CC(C)c1noc(CCNC(=O)N2CCC(O)(C(F)(F)F)C2)n1 (configuration not stated)
cytotoxicity at 70.5 h: -14.8%

Cc1ccccc1CNc1ccccc1OCC(=O)N1CCOCC1
cytotoxicity at 70.5 h: -3.34%

O=C(CCn1ccc2ccccc21)Nc1ccnn1CC1CCOC1 (configuration not stated)
cytotoxicity at 70.5 h: -16.3%

Cc1cc(C(N)=O)c2c(Br)cccc2n1
cytotoxicity at 70.5 h: -13.6%

O=C1NC(c2cnc(C3CCC3)s2)Nc2ncccc21 (configuration not stated)
cytotoxicity at 70.5 h: -26.5%

Cc1ccc(NCc2cc(C#N)ccc2F)cc1-n1nnnc1C
cytotoxicity at 70.5 h: -13.2%

CN(CCC(N)=O)Cc1cc(Br)cs1
cytotoxicity at 70.5 h: -19.7%

COC(=O)CN(C)Cc1cc(Br)cs1
cytotoxicity at 70.5 h: 38.2%

OC(COCc1ccccc1)CN1CCC(Cn2cccn2)CC1 (configuration not stated)
cytotoxicity at 70.5 h: -22.4%

CCCn1nnnc1COc1ccc(C(=O)OC)cc1
cytotoxicity at 70.5 h: -11.5%

CCN(C(=O)COC)C(c1ccc(Cl)cc1)c1ccccn1 (configuration not stated)
cytotoxicity at 70.5 h: -21.9%

Clc1ccc(CNc2cnn(CCN3CCOCC3)c2)cc1Cl
cytotoxicity at 70.5 h: -19.4%

CS(=O)(=O)c1cccc(OCC(=O)N2CCCC2c2ccccc2Cl)c1 (configuration not stated)
cytotoxicity at 70.5 h: -2.69%

CCCN(Cc1cnn(C)c1)CC1CCCN(S(C)(=O)=O)C1 (configuration not stated)
cytotoxicity at 70.5 h: 23.4%

CC(C)N(Cc1cnn(C)c1)CC1CCCN(S(C)(=O)=O)C1 (configuration not stated)
cytotoxicity at 70.5 h: 10.1%

Cc1ccc(N2CCCC(N3CCC(N(C)C)CC3)C2=O)cc1 (configuration not stated)
cytotoxicity at 70.5 h: 13.2%

Cc1ccc(NC(=O)CNc2ccn(CC(N)=O)n2)c(Cl)c1
cytotoxicity at 70.5 h: -7.52%

CC(C(=O)NCC1(c2cccc(Br)c2)CCC1)S(C)(=O)=O (configuration not stated)
cytotoxicity at 70.5 h: 7%

CC(=O)N1CCN(C(=O)CNc2ccc3sccc3c2)CC1
cytotoxicity at 70.5 h: -4.15%

CC(=O)N1CCN(C(=O)CNc2ccc3ncsc3c2)CC1
cytotoxicity at 70.5 h: -5.1%

O=C(NCCOCC1CC1)Nc1ccc(F)cc1
cytotoxicity at 70.5 h: -9.49%

CC(=O)c1ccc(Cl)c(Cl)c1OCC(=O)NC(N)=O
cytotoxicity at 70.5 h: 14.2%

CC(=O)c1ccc(Cl)c(Cl)c1OCC(=O)NCC(F)(F)F
cytotoxicity at 70.5 h: -8.87%

Nc1cc2c(nn1)CCN(C(=O)c1cccnc1Oc1ccccc1)C2
cytotoxicity at 70.5 h: -8.86%

CC(C)OCc1cccc(NC(=O)N2CCCC(CCC(N)=O)C2)c1 (configuration not stated)
cytotoxicity at 70.5 h: 6.13%

CN(C)C1(CNC(=O)Cc2ccc(F)cc2)CCOCC1
cytotoxicity at 70.5 h: -5.15%

Nc1cc2c(nn1)CCN(C(=O)c1ccc(Oc3cccnc3)cc1)C2
cytotoxicity at 70.5 h: -9.26%

CN(C)C1(CNC(=O)C2CCCN2Cc2ccc(F)cc2)CCOCC1 (configuration not stated)
cytotoxicity at 70.5 h: 6.73%

COC(=O)C1CCN(C(=O)Nc2cc(-n3cccc3)ccc2F)CC1
cytotoxicity at 70.5 h: -6.77%

CC(C)NC(=O)CS(=O)(=O)c1cc2c(cc1Cl)OCCO2
cytotoxicity at 70.5 h: -3.28%

Cn1cc(CNc2cnn(CCO)c2)c(-c2ccncc2)n1
cytotoxicity at 70.5 h: -5.07%

Cc1ccc(N2CCCC(N3CCC4(CC3)OCCO4)C2=O)cc1 (configuration not stated)
cytotoxicity at 70.5 h: -7.88%

O=C(Nc1cc(-n2cccc2)ccc1F)N1CCCC1
cytotoxicity at 70.5 h: -11.7%

NC(=O)N1CCCN(C(=O)Nc2cc(-n3cccc3)ccc2F)CC1
cytotoxicity at 70.5 h: -6.12%

CN(CC1CCCN(S(C)(=O)=O)C1)c1cnn(C)c1 (configuration not stated)
cytotoxicity at 70.5 h: 18.9%

COc1cncc(N2CCN(Cc3cccn3C)CC2)n1
cytotoxicity at 70.5 h: 3.9%

CCOc1cccnc1C(=O)N1CCC(c2ccccc2OC)C1 (configuration not stated)
cytotoxicity at 70.5 h: -8.54%

COc1ccccc1C1CCN(C(=O)c2ncccc2OC(C)C)C1 (configuration not stated)
cytotoxicity at 70.5 h: -1.72%

COc1cc(CNC2CCN(c3ccccc3)C2)cc(OC)c1OC (configuration not stated)
cytotoxicity at 70.5 h: -6.84%

COCCn1cc(NCc2cn(C)nc2-c2ccncc2)cn1
cytotoxicity at 70.5 h: 21.2%

CCN(Cc1cnn(C)c1)C(=O)c1ccccc1O
cytotoxicity at 70.5 h: -6.92%

N#Cc1cnn(CCN2CCOC(CNc3cccnn3)C2)c1 (configuration not stated)
cytotoxicity at 70.5 h: 4.89%

c1cnnc(NCC2CN(CCn3cncn3)CCO2)c1 (configuration not stated)
cytotoxicity at 70.5 h: 11.7%

O=C(c1ccc(O)nc1)N1CCN(C(=O)c2ccc(F)c(F)c2)CC1
cytotoxicity at 70.5 h: -2.92%

CN(Cc1cccc(F)c1)C(=O)CS(=O)(=O)Cc1c(Cl)cccc1Cl
cytotoxicity at 70.5 h: 5.76%

COc1ccc(C2CCCCCN2Cc2nnc(C)o2)cc1 (configuration not stated)
cytotoxicity at 70.5 h: -3.01%

COc1ccccc1N1CCC(CNS(=O)(=O)c2c(C)nn(C)c2C)C1 (configuration not stated)
cytotoxicity at 70.5 h: 2.25%

Cc1nc(C)c(CC(=O)N2CCC(Oc3ccccc3)CC2)c(=O)[nH]1
cytotoxicity at 70.5 h: -7.9%

CC(C)c1nn(C)c(N(C)C)c1CNC1CCC(O)CC1 (configuration not stated)
cytotoxicity at 70.5 h: -6.96%

O=C(COC1CCCC1)NC(C(=O)Nc1cc[nH]n1)c1ccccc1 (configuration not stated)
cytotoxicity at 70.5 h: 3.78%

c1cc(CN2CCN(Cc3ccon3)C3(CCCCC3)C2)no1
cytotoxicity at 70.5 h: 4.47%

O=C(NCCC1Cc2ccccc2C1)N1CCCC(O)C1 (configuration not stated)
cytotoxicity at 70.5 h: 26.4%

CN(C)c1cccc(C2CCCN2CCCN2CCOC2=O)c1 (configuration not stated)
cytotoxicity at 70.5 h: 7.84%

COc1cc(C)c(CNC(C)c2nc(C)cs2)cc1OC (configuration not stated)
cytotoxicity at 70.5 h: -2.23%

CC(c1ccccc1Cl)N1CCN(C(=O)c2ccc(=O)[nH]c2)CC1 (configuration not stated)
cytotoxicity at 70.5 h: 2%

CCN(C)CC1CCN(C(=O)NCCC2Cc3ccccc3C2)C1 (configuration not stated)
cytotoxicity at 70.5 h: -6.72%

Cc1nnc(CN2CCCC2c2ccc(C(C)(C)C)cc2)o1 (configuration not stated)
cytotoxicity at 70.5 h: -3.63%

Cc1nnc(CN2CCCC2c2ccsc2)o1 (configuration not stated)
cytotoxicity at 70.5 h: -4.6%

N#Cc1cc(Cl)ccc1N1CCN(C(=O)C2CCC2)CC1
cytotoxicity at 70.5 h: -1.06%

CNC(=O)c1cccc(NC(=O)CN2CCCN(S(C)(=O)=O)CC2)c1
cytotoxicity at 70.5 h: -5.6%

CC(C)(NC(=O)c1ccc(-c2ccc(F)cc2)s1)C(N)=O
cytotoxicity at 70.5 h: 4.62%

CCOCCCC(=O)Nc1cccnc1-n1ccnc1C
cytotoxicity at 70.5 h: -6.87%

O=C(NCc1ccccc1F)N1CCC(C2OCCO2)CC1
cytotoxicity at 70.5 h: -7.09%

COc1ccc(CC(=O)N2CCCN(c3ccc(C#N)cc3)CC2)cc1
cytotoxicity at 70.5 h: -2.17%

COc1cccc(N2CCN(CCC(=O)NC3CCCC3)CC2)c1
cytotoxicity at 70.5 h: -5.97%

Cc1cccc(CC(=O)N2CCCCC2CN)c1 (configuration not stated)
cytotoxicity at 70.5 h: -3.78%

NCC1CCCCN1C(=O)Cc1ccc(F)c(F)c1 (configuration not stated)
cytotoxicity at 70.5 h: -9.5%

Cc1nn(C)c(Cl)c1CNCc1cccnc1N1CCN(C)CC1
cytotoxicity at 70.5 h: 2.87%
